The numbers were not newly measured in patent US20060013862A1, “Onychomycosis: a new process for cure” (priority 2004, published 2006), which cites them from elsewhere.

The data set concerns onychomycosis.
[1] abbreviates: itraconazole vs terbinafine-treated patients.

Consider `CN(C/C=C/C#CC(C)(C)C)Cc1cccc2ccccc12` [terbinafine], for which, under setting [1], the Mycological relapse rate is recorded as 23% and the clinical relapse rate was 21%. Where the note is “share of treated subjects (34 of 74 terbinafine)”, the “Mycological cure without second intervention treatment” value is 46%.
